According to patent US10681909B2, “Herbicidal triazoles” (FMC Corporation, priority 2014, dated 2020):

Assays:
foxtail, giant = test: Test A preemergence; format: in vivo, Setaria faberii; conditions: 0 to 100 scale (0 no effect, 100 complete control)
Summary of the method: (§1)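 Test chemicals in a non-phytotoxic solvent with surfactant were applied as a directed soil spray preemergence to seeds sown in loam/sand. Postemergence sprays went to plants 2–10 cm tall at the one- to two-leaf stage. A dash means no result.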

pigweed [1] = test: Test A preemergence; format: in vivo, Amaranthus retroflexus; conditions: 0 to 100 scale (0 no effect, 100 complete control)
Summary of the method: as §1

rice = test: Test B flooded paddy test; format: in vivo, Oryza sativa; conditions: 250 g ai/ha, applied to paddy water at 2-leaf stage, visual rating after 13 to 15 d, scale 0 (no effect) to 100 (complete control)
Summary of the method: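 Pots were flooded to 3 cm above the soil at treatment, and compounds were applied directly into the paddy water. That depth was held throughout. After 13 to 15 d in a greenhouse, plants were rated visually against untreated controls.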

blackgrass = test: Test C postemergence; format: in vivo, Alopecurus myosuroides
Summary of the method: (§2)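 Pre: seeded into loam/sand, sprayed same time. Post: plants in peat moss–vermiculite mix with starter nutrients and dolomitic limestone, treated at 1- to 4-leaf stage (2 to 18 cm). Formulation: non-phytotoxic solvent blend plus surfactant.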

wheat (winter wheat) = test: Test C postemergence; format: in vivo, Triticum aestivum
Summary of the method: as §2

galium = test: Test C postemergence; format: in vivo, Galium aparine
Summary of the method: as §2

johnsongrass = test: Test C postemergence; format: in vivo, Sorghum halepense
Summary of the method: as §2

lambsquarters = test: Test C postemergence; format: in vivo, Chenopodium album
Summary of the method: as §2

pigweed [2] = test: Test C postemergence; format: in vivo, Amaranthus retroflexus
Summary of the method: as §2

soybean = test: Test C postemergence; format: in vivo, Glycine max
Summary of the method: as §2

chickweed = test: Test C postemergence; format: in vivo, Stellaria media
Summary of the method: as §2

oat, wild = test: Test C postemergence; format: in vivo, Avena fatua
Summary of the method: as §2

ryegrass, Ital. = test: Test D preemergence; format: in vivo, Lolium multiflorum; conditions: for Plant response rating: Ryegrass, Ital.: scale 0 to 100
From the text: Seeds of plant species selected from bluegrass (annual bluegrass, Poa annua), blackgrass (Alopecurus myosuroides), canarygrass (Phalaris minor), chickweed (common chickweed, Stellaria media), galium (catchweed bedstraw, Galium aparine), bromegrass, down (downy bromegrass, Bromus tectorum), Russian thistle (Salsola kali), field poppy (Papaver rhoeas), field violet (Viola arvensis), foxtail, green (green foxtail, Setaria viridis), deadnettle (henbit deadnettle, Lamium amplexicaule), ryegrass, Ital. (Italian ryegrass, Lolium multiflorum), kochia (Kochia scoparia), lambsquarters (Chenopodium album), oilseed rape (Brassica napus), pigweed (Amaranthus retroflexus), chamomile (scentless chamomile, Matricaria inodora), speedwell (bird's-eye speedwell, Veronica persica), barley, spring (spring barley, Hordeum vulgare), wheat, spring (spring wheat, Triticum aestivum), buckwheat, wild (wild buckwheat, Polygonum convolvulus), wild mustard (Sinapis arvensis), oat, wild (wild oat, Avena fatua), radish, wild (wild radish, Raphanus raphanistrum), […]), barley, winter (winter barley, Hordeum vulgare), and wheat, winter (winter wheat, Triticum aestivum) were planted into a silt loam soil and treated preemergence with test chemicals formulated in a non-phytotoxic solvent mixture which included a surfactant. At the same time, these species were planted in pots containing Sunshine Redi-Earth® planting medium comprising spaghnum peat moss, vermiculite, starter nutrients and dolomitic limestone and treated with postemergence applications of the test chemicals formulated in the same manner. Plants ranged in height from 2 to 18 cm (1- to 4-leaf stage). Treated plants and controls were maintained in a controlled growth environment for 14 to 21 d after which time all species were compared to controls and visually evaluated. […] A dash (-) response means no test result.

Question: What does the source list for `CCOc1nc(-c2ccccc2)nn1Cc1ccnc(C(F)(F)F)c1` [Compound 27]?
Answer: Plant response rating, Foxtail, Giant (foxtail, giant; 125 g ai/ha): 100; Plant response rating, Foxtail, Giant (foxtail, giant; 500 g ai/ha, approx. 10 d): 100; Plant response rating, Pigweed (pigweed [1]; 125 g ai/ha): 100; Plant response rating, Pigweed (pigweed [1]; 500 g ai/ha, approx. 10 d): 100; Plant response rating, Rice, Flood (rice): 30; Plant response rating (scale of 0 to 100 where 0 is no effect and 100 is complete control) (blackgrass; 31 g ai/ha): 10; Plant response rating (scale of 0 to 100 where 0 is no effect and 100 is complete control) (blackgrass; 62 g ai/ha): 15; Plant response rating (scale of 0 to 100 where 0 is no effect and 100 is complete control) (blackgrass; 125 g ai/ha): 35; Plant response rating (scale of 0 to 100 where 0 is no effect and 100 is complete control) (blackgrass; 250 g ai/ha): 50; Plant response rating (scale of 0 to 100 where 0 is no effect and 100 is complete control) (wheat (winter wheat); 31 g ai/ha): 5; Plant response rating (scale of 0 to 100 where 0 is no effect and 100 is complete control) (wheat (winter wheat); 62 g ai/ha): 5; Plant response rating (scale of 0 to 100 where 0 is no effect and 100 is complete control) (wheat (winter wheat); 125 g ai/ha): 5; Plant response rating (scale of 0 to 100 where 0 is no effect and 100 is complete control) (wheat (winter wheat); 250 g ai/ha): 15; Plant response rating (scale of 0 to 100 where 0 is no effect and 100 is complete control) (galium; 31 g ai/ha): 90; Plant response rating (scale of 0 to 100 where 0 is no effect and 100 is complete control) (galium; 62 g ai/ha): 90; Plant response rating (scale of 0 to 100 where 0 is no effect and 100 is complete control) (galium; 125 g ai/ha): 85; Plant response rating (scale of 0 to 100 where 0 is no effect and 100 is complete control) (galium; 250 g ai/ha): 90; Plant response rating (scale of 0 to 100 where 0 is no effect and 100 is complete control) (johnsongrass; 31 g ai/ha): 5; Plant response rating (scale of 0 to 100 where 0 is no effect and 100 is complete control) (johnsongrass; 62 g ai/ha): 45; Plant response rating (scale of 0 to 100 where 0 is no effect and 100 is complete control) (johnsongrass; 125 g ai/ha): 100; Plant response rating (scale of 0 to 100 where 0 is no effect and 100 is complete control) (lambsquarters; 31 g ai/ha): 85; Plant response rating (scale of 0 to 100 where 0 is no effect and 100 is complete control) (lambsquarters; 62 g ai/ha): 95; Plant response rating (scale of 0 to 100 where 0 is no effect and 100 is complete control) (lambsquarters; 125 g ai/ha): 98; Plant response rating (scale of 0 to 100 where 0 is no effect and 100 is complete control) (lambsquarters; 250 g ai/ha): 98; Plant response rating (scale of 0 to 100 where 0 is no effect and 100 is complete control) (pigweed [2]; 31 g ai/ha): 85; Plant response rating (scale of 0 to 100 where 0 is no effect and 100 is complete control) (pigweed [2]; 62 g ai/ha): 85; Plant response rating (scale of 0 to 100 where 0 is no effect and 100 is complete control) (pigweed [2]; 125 g ai/ha): 95; Plant response rating (scale of 0 to 100 where 0 is no effect and 100 is complete control) (pigweed [2]; 250 g ai/ha): 95; Plant response rating (scale of 0 to 100 where 0 is no effect and 100 is complete control) (soybean; 31 g ai/ha): 70; Plant response rating (scale of 0 to 100 where 0 is no effect and 100 is complete control) (soybean; 62 g ai/ha): 95; Plant response rating (scale of 0 to 100 where 0 is no effect and 100 is complete control) (soybean; 125 g ai/ha): 65; Plant response rating (scale of 0 to 100 where 0 is no effect and 100 is complete control) (soybean; 250 g ai/ha): 70; Plant response rating (scale of 0 to 100 where 0 is no effect and 100 is complete control) (chickweed; 31 g ai/ha): 95; Plant response rating (scale of 0 to 100 where 0 is no effect and 100 is complete control) (chickweed; 62 g ai/ha): 90; Plant response rating (scale of 0 to 100 where 0 is no effect and 100 is complete control) (chickweed; 125 g ai/ha): 90; Plant response rating (scale of 0 to 100 where 0 is no effect and 100 is complete control) (chickweed; 250 g ai/ha): 90; Plant response rating (scale of 0 to 100 where 0 is no effect and 100 is complete control) (oat, wild; 31 g ai/ha): 10; Plant response rating (scale of 0 to 100 where 0 is no effect and 100 is complete control) (oat, wild; 62 g ai/ha): 10; Plant response rating (scale of 0 to 100 where 0 is no effect and 100 is complete control) (oat, wild; 125 g ai/ha): 25; Plant response rating (scale of 0 to 100 where 0 is no effect and 100 is complete control) (oat, wild; 250 g ai/ha): 40; Plant response rating (0 to 100), Ryegrass, Ital. (ryegrass, Ital.; 16 g ai/ha, 0 is no effect, 100 is complete control): 25; Plant response rating: Ryegrass, Ital. (ryegrass, Ital.; 62 g ai/ha): 65; Plant response rating: Ryegrass, Ital. (ryegrass, Ital.; 125 g ai/ha): 75
